Data taken from patent US11851692B2, “Method for preparing an antimycin compound produced by Streptomyces sp.4-7” (priority 2022, dated 2023).
In brackets after ≈: the same amount, converted by molar mass.

How the values were obtained:
[1] = Oxford Cup method antifungal test, Botrytis cinerea; type: cell-based, Botrytis cinerea (CGMCC3.3789); details: Staphylococcus, CGMCC3, 120 h; Oxford Cup method, PDA plates, 28° C., 5 days; strain CGMCC 3.3789; read-out: minimum inhibitory concentration (MIC)
Method: (§1) Preparation of the test sample solution: The test sample was the pure compound I separated and purified in the above Example 1. An appropriate amount of sample was accurately weighed and mixed with DMSO to obtain a solution of the required concentration for testing the antifungal activity. The indicator bacteria used in this experiment were Botrytis cinerea (CGMCC3.3789) and Penicillium citrinum (ATCC1109).
(§2) Oxford Cup method for antifungal test: 100 μL of spore suspension was spread evenly on PDA plates, and Oxford cups were placed in the center of the plates. 100 μL of compound solutions of different concentrations were added into the Oxford cups separately, the concentrations of the compound solutions were 32 μg/mL, 16 μg/mL, 8 μg/mL, 4 μg/mL, 2 μg/mL, 1 μg/mL, and 0.5 μg/mL. DMSO was used as a negative control, and prochloraz of the same concentration was used as a positive control. After incubation at 28° C. for 5 days, the growth of fungi was observed. Four culture plates were set up for each treatment, and the whole experiment was repeated three times.

[2] = system: Staphylococcus griseus (CGMCC 3.3789); experiment: as above; type: cell-based, Botrytis cinerea (CGMCC3.3789); details: result in words
Method: as §1, §2

[3] = system: Penicillium oryzae (ATCC 1109); experiment: Oxford Cup method antifungal test, Penicillium citrinum; type: cell-based, Penicillium citrinum (ATCC1109)
Method: as §1, §2

## CC[C@@H](C)C[C@H]1C(=O)O[C@H](C)[C@H](NC(=O)c2cccc(NC=O)c2O)C(=O)O[C@@H](C)[C@@H]1CC(=O)C(C)C [Compound I, Antimycin I]
[1]
  MIC: 2 µg/mL (≈ 3.86 µM)
[2]
  resistance activity against Botrytis cinerea (antifungal activity screening): significant resistance activity
[3]; Penicillium, ATCC1109, 120 h, Oxford Cup method, PDA plates, 28° C., 5 days, strain ATCC 1109, read-out: minimum inhibitory concentration (MIC)
  MIC: 4 µg/mL (≈ 7.71 µM)
[3]; result in words
  resistance activity against Penicillium citrinum (antifungal activity screening): significant resistance activity
